pKi: −log10 of the molar value.
Target: T1, Tissue transglutaminase (TG2) (Homo sapiens, UniProt P21980)
T1 construct: gene TGM2; Full length TG2, His6-tagged, expressed in E. coli
Assay: competition ELISA with purified His6-TG2 and biotinylated FN42 (FN42 saturation curves, Lineweaver-Burk); AlphaLISA
Type: binding

T1 sequence (P21980 whole entry): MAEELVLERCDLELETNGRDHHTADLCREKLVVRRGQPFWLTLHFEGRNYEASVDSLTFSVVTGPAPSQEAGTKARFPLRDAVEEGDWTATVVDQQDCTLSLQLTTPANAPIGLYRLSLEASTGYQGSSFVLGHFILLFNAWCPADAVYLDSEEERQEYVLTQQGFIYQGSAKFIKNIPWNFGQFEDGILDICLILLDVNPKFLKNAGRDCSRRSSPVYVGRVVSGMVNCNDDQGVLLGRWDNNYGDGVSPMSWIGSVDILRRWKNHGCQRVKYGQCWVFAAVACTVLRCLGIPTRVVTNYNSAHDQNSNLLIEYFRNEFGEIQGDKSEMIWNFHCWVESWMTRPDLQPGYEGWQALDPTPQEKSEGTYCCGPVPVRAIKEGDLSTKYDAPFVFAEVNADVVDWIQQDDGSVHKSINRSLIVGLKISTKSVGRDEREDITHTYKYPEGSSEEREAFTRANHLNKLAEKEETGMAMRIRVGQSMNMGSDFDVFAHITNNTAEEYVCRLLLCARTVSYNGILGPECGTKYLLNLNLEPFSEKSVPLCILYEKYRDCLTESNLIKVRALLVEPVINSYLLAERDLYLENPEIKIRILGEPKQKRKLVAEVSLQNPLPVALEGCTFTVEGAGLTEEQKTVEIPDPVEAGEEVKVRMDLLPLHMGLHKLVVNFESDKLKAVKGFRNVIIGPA
T1 sequence (P02751 32-2477 partner): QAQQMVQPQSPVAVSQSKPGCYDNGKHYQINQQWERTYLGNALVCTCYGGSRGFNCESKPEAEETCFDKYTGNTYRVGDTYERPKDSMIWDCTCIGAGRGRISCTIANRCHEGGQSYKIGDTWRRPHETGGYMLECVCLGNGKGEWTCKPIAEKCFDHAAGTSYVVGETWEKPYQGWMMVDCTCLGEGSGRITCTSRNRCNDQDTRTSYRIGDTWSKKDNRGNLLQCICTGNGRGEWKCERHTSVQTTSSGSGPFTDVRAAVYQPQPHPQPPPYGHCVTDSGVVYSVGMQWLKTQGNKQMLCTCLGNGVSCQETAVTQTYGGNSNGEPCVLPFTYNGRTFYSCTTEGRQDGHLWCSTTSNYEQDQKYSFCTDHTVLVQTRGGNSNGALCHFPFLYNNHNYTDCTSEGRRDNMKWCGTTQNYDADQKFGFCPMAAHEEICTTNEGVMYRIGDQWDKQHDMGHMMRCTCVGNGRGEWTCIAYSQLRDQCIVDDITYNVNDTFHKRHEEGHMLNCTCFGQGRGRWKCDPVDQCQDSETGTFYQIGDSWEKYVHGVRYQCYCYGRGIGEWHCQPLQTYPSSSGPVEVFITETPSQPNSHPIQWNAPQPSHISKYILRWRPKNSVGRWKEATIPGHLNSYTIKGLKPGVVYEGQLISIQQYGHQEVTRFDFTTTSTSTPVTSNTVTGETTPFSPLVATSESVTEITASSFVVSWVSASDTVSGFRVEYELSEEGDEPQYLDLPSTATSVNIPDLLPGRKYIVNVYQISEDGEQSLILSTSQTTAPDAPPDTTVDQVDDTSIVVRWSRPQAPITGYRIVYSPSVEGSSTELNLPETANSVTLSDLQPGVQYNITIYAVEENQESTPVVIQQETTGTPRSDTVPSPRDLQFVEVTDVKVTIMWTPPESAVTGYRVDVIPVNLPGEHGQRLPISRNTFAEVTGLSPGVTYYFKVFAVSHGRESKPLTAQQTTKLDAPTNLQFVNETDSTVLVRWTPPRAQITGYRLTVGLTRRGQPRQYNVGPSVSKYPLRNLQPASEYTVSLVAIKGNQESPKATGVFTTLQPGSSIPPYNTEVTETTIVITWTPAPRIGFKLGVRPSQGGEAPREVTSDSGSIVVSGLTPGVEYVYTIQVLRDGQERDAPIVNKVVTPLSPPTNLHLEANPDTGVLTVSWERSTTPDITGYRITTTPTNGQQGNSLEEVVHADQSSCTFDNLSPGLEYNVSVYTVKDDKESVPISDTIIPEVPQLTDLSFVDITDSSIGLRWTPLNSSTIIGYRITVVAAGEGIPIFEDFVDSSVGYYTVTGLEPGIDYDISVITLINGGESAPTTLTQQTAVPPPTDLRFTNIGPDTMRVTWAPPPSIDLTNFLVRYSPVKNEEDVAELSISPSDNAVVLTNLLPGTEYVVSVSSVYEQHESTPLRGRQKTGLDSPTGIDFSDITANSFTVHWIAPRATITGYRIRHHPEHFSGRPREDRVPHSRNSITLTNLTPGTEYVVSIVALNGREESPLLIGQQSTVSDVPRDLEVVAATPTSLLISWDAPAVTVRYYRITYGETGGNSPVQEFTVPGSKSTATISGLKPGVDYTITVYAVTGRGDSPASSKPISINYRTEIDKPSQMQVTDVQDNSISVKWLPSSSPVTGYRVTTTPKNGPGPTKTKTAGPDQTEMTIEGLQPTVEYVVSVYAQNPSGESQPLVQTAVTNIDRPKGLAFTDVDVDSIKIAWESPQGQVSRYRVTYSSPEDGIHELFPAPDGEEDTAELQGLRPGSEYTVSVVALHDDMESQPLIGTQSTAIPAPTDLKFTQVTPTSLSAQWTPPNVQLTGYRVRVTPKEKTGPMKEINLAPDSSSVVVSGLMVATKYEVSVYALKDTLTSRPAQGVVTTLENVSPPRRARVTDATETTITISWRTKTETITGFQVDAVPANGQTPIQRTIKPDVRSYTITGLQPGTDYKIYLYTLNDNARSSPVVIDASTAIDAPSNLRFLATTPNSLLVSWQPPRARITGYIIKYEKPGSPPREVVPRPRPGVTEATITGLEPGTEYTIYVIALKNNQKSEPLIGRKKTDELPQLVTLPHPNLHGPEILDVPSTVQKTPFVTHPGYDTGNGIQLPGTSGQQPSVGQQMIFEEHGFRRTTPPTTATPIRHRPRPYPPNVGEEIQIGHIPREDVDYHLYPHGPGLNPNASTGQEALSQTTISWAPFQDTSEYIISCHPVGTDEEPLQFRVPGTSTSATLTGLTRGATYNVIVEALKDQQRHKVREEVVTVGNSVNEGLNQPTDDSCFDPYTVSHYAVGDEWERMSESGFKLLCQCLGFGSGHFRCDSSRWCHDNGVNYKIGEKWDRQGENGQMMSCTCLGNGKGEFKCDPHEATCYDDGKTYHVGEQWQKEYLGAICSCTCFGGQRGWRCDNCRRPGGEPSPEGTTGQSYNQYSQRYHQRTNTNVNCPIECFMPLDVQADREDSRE

pKi: 5.38
SMILES: COc1ccc(Cl)cc1C(=O)Nc1ccc(Nc2nc(C)cc(N(C)C)n2)cc1 [TG53]

Source: PMC3930694, “Small Molecule Inhibitors Target the Tissue Transglutaminase and Fibronectin Interaction” (PLoS ONE, 2014)
